In ChEMBL document CHEMBL4229451, “Recent advances in peptidomimetics antagonists targeting estrogen receptor α-coactivator interaction in cancer therapy” (Bioorg Med Chem Lett, 2018):
Starred links: 1 amine or outer side, 2 acyl side, 3 side chain; linkers in the order of their positions; H or OH if unused. Positions of bridges follow the written chain, without caps; N, C: chain ends. Non-standard residues stand in square brackets, D forms with d. Residues, ends and D or L forms follow the SMILES beside them. αMeNle(4R-Me,6-ylidene) = C[C@H](CC=[*:3])C[C@](C)(N[*:1])C(=O)[*:2]; X3 = C[C@@H](CC=[*:3])C[C@](C)(N[*:1])C(=O)[*:2]; S5 = C=CCCC[C@](C)(N)C(=O)O

Assays:
[1] = target: T1, Estrogen receptor (Homo sapiens) (UniProt P03372); assay: (§1) Binding affinity to recombinant human ERalpha LBD (301 to 553 residues) expressed in Escherichia coli BL21(DE3) by surface plasmon resonance method
T1 sequence (whole entry): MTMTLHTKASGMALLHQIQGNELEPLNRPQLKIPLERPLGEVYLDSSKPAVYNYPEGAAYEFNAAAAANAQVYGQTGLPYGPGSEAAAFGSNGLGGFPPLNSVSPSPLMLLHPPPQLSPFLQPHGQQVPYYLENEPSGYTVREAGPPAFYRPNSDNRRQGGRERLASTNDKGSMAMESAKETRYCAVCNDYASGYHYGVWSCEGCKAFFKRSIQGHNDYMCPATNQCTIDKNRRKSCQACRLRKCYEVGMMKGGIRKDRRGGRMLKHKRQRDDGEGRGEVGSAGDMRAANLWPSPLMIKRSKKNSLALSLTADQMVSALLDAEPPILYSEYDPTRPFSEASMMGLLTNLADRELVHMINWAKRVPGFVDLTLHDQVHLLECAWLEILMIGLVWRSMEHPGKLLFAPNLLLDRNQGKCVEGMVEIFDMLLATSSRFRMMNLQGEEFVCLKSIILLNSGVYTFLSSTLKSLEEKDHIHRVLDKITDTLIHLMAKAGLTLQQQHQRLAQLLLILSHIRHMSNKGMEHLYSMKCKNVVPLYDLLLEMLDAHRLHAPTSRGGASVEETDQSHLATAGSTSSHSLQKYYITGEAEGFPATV

[2] = target: T2, Estrogen receptor (Homo sapiens, UniProt P03372); assay: as §1
T2 sequence (P03372 whole entry): T1 sequence (whole entry)

[3] = system: Estrogen receptor beta (Homo sapiens), Q92731 [C334S,C369S,C481S]; assay: (§2) Binding affinity to recombinant human ERbeta LBD (259 to 498 residues) C334S/C369S/C481S triple mutant expressed in Escherichia coli BL21(DE3) by surface plasmon resonance method
Chain of Estrogen receptor beta (Homo sapiens), Q92731 [C334S,C369S,C481S] (Q92731 whole entry C334S/C369S/C481S, the tested form may be a part): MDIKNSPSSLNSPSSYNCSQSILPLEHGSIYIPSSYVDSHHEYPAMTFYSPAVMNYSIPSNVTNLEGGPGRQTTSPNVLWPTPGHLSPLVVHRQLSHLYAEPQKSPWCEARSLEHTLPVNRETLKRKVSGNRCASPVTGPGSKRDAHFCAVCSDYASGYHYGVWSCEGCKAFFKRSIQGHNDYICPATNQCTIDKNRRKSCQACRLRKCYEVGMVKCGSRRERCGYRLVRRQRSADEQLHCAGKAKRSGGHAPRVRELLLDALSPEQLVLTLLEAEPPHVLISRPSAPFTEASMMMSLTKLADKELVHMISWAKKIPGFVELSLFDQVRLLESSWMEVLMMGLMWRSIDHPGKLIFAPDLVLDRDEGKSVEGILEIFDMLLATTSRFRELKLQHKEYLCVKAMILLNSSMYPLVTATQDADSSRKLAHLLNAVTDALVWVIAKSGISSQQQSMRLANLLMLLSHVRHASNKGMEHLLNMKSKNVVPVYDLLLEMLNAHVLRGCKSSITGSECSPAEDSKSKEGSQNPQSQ

[4] = target: Estrogen receptor beta (Homo sapiens, UniProt Q92731, C334S/C369S/C481S); assay: as §2
Chain of Estrogen receptor beta (Q92731 whole entry C334S/C369S/C481S, the tested form may be a part): as above

[5] = target: T2, Estrogen receptor; assay: Binding affinity to recombinant N-terminal His6-tagged ERalpha LBD (unknown origin) (299 to 554 residues) by surface plasmon resonance method
[6] = target: T2, Estrogen receptor; assay: Displacement of 5-iodoacetamidofluorescein-labelled SRC3 from C417-biotin labelled ERalpha (unknown origin) (304 to 554 residues) after 45 mins by TR-FRET assay
[7] = target: T2, Estrogen receptor; assay: Antagonist activity at full length recombinant human ERalpha expressed in baculovirus expression system assessed as inhibition of estradiol-induced Euphorium-labelled LTERHKILHRLLQEGSPSD peptide recruitment after 1.5 hrs by time-resolved fluorescence assay

Row | SMILES | Kdiss [1] | Kd [2] | Kdiss [3] | Kd [4] | IC50 [6] | further results
1 | CC[C@H](C)[C@H](NC(=O)[C@H](CCCCN)NC(=O)[C@H](Cc1cnc[nH]1)NC(C)=O)C(=O)N[C@@H](CC(C)C)C(=O)N[C@@H](Cc1cnc[nH]1)C(=O)N[C@@H](CCCNC(=N)N)C(=O)N[C@@H](CC(C)C)C(=O)N[C@@H](CC(C)C)C(=O)N[C@@H](CCC(N)=O)C(=O)N[C@@H](CC(=O)O)C(=O)N[C@@H](CO)C(N)=O (Ac-HKILHRLLQDS-NH2) | 0.347 s⁻¹ | 2500 nM | 0.376 s⁻¹ | 5000 nM | – | Kd [5]: 2600 nM
2 | CC[C@H](C)[C@H](NC(=O)[C@H](CCCCN)NC(=O)[C@H](Cc1cnc[nH]1)NC(=O)[C@H](CCCCN)NC(=O)[C@H](CCC(=O)O)NC(C)=O)C(=O)N[C@@H](CC(C)C)C(=O)N[C@@]1(C)CCC/C=C\CCC[C@@](C)(C(=O)N[C@@H](CC(=O)O)C(=O)N[C@@H](CO)C(N)=O)NC(=O)[C@H](CC(C)C)NC(=O)[C@H](CC(C)C)NC(=O)[C@H](CCCNC(=N)N)NC1=O (Ac-EKHKIL[S5]RLL[S5]DS-NH2; staple (Z) 7-11) | 0.129 s⁻¹ | 75 nM | 0.155 s⁻¹ | 155 nM | – | –
3 | CC[C@H](C)[C@H](NC(=O)[C@H](CCCCN)NC(=O)[C@H](Cc1cnc[nH]1)NC(C)=O)C(=O)N[C@@H](CC(C)C)C(=O)N[C@@H](Cc1cnc[nH]1)C(=O)N[C@@H](CCC(N)=O)C(=O)N[C@@H](CC(C)C)C(=O)N[C@@H](CC(C)C)C(=O)N[C@@H](CCC(N)=O)C(=O)N[C@@]1(C)CCC/C=C\CCC[C@@](C)(C(=O)N[C@H](C(N)=O)C(C)C)NC(=O)[C@H](CO)NC(=O)[C@H](CO)NC(=O)[C@H](CO)NC1=O (Ac-HKILHQLLQ[S5]SSS[S5]V-NH2; staple (Z) 10-14) | – | 4000 nM | – | 2800 nM | – | –
4 | CC(=O)N[C@@H](Cc1cnc[nH]1)C(=O)N[C@@H](CCCCN)C(=O)N[C@@]1(C)C[C@@H](C)C/C=C\CCC[C@@](C)(C(=O)N[C@@H](CC(C)C)C(=O)N[C@@H](CCC(N)=O)C(=O)N[C@@H](CC(=O)O)C(=O)N[C@@H](CO)C(N)=O)NC(=O)[C@H](CCCNC(=N)N)NC(=O)[C@H](Cc2cnc[nH]2)NC(=O)[C@H](CC(C)C)NC1=O (Ac-HK[X3]LHR[S5]LQDS-NH2; staple (Z) 3-7) | – | – | – | – | 89 nM | –
5 | CC(=O)N[C@@H](Cc1cnc[nH]1)C(=O)N[C@@H](CCCCN)C(=O)N[C@@]1(C)CCC/C=C\C[C@@H](C)C[C@@](C)(C(=O)N[C@@H](CC(C)C)C(=O)N[C@@H](CCC(N)=O)C(=O)N[C@@H](CC(=O)O)C(=O)N[C@@H](CO)C(N)=O)NC(=O)[C@H](CCCNC(=N)N)NC(=O)[C@H](Cc2cnc[nH]2)NC(=O)[C@H](CC(C)C)NC1=O (Ac-HK[S5]LHR[αMeNle(4R-Me,6-ylidene)]LQDS-NH2; staple (Z) 3-7) | – | – | – | – | 1800 nM | –
6 | CC(=O)N[C@@H](Cc1cnc[nH]1)C(=O)N[C@@H](CCCCN)C(=O)N[C@@]1(C)CCC/C=C\CCC[C@@](C)(C(=O)N[C@@H](CC(C)C)C(=O)N[C@@H](CCC(N)=O)C(=O)N[C@@H](CC(=O)O)C(=O)N[C@@H](CO)C(N)=O)NC(=O)[C@H](CCC(N)=O)NC(=O)[C@H](Cc2cnc[nH]2)NC(=O)[C@H](CC(C)C)NC1=O (Ac-HK[S5]LHQ[S5]LQDS-NH2; staple (Z) 3-7) | 0.193 s⁻¹ | 352 nM | 0.339 s⁻¹ | 632 nM | 760 nM | –
7 | CC[C@H](C)[C@H](NC(=O)[C@H](CCCCN)NC(=O)[C@H](Cc1cnc[nH]1)NC(C)=O)C(=O)N[C@@H](CC(C)C)C(=O)N[C@@H](Cc1cnc[nH]1)C(=O)N[C@@]1(C)CCC/C=C\CCC[C@@](C)(C(=O)N[C@@H](CO)C(N)=O)NC(=O)[C@H](CCC(N)=O)NC(=O)[C@H](CC(C)C)NC(=O)[C@H](CC(C)C)NC1=O (Ac-HKILH[S5]LLQ[S5]S-NH2; staple (Z) 6-10) | – | > 15000 nM | – | > 15000 nM | – | –
8 | CC(=O)N[C@@H](Cc1cnc[nH]1)C(=O)N[C@@H](CCCCN)C(=O)N[C@@]1(C)C[C@H](C)C/C=C\CCC[C@@](C)(C(=O)N[C@@H](CC(C)C)C(=O)N[C@@H](CCC(N)=O)C(=O)N[C@@H](CC(=O)O)C(=O)N[C@@H](CO)C(N)=O)NC(=O)[C@H](CCCNC(=N)N)NC(=O)[C@H](Cc2cnc[nH]2)NC(=O)[C@H](CC(C)C)NC1=O (Ac-HK[αMeNle(4R-Me,6-ylidene)]LHR[S5]LQDS-NH2; staple (Z) 3-7) | – | – | – | – | 96 nM | –
9 | CC[C@H](C)[C@@H]1NC(=O)[C@H](NC(=O)[C@@H](N)CCCNC(=N)N)CSSC[C@H](C(=O)N[C@@H](CCCNC(=N)N)C(=O)N[C@@H](CC(C)C)C(=O)N[C@@H](CC(C)C)C(=O)N[C@@H](CCC(N)=O)C(N)=O)NC(=O)[C@H](CC(C)C)NC1=O | – | – | – | – | – | Ki [7]: 11 nM
